In patent US7709482B2, “Polycyclic heteroaryl substituted triazoles useful as Axl inhibitors” (Rigel Pharmaceuticals, Inc., priority 2006, dated 2010):

What follows are compounds tested against T1, Axl (Homo sapiens, UniProt P30530) (assay: Phospho-Akt In-Cell Western Assay (inhibition of Axl activity after Axl-antibody cross-linking)). Conditions: not given.
T1 construct: endogenous in cells; host or cells: HeLa cells
T1 sequence (P30530 26-894): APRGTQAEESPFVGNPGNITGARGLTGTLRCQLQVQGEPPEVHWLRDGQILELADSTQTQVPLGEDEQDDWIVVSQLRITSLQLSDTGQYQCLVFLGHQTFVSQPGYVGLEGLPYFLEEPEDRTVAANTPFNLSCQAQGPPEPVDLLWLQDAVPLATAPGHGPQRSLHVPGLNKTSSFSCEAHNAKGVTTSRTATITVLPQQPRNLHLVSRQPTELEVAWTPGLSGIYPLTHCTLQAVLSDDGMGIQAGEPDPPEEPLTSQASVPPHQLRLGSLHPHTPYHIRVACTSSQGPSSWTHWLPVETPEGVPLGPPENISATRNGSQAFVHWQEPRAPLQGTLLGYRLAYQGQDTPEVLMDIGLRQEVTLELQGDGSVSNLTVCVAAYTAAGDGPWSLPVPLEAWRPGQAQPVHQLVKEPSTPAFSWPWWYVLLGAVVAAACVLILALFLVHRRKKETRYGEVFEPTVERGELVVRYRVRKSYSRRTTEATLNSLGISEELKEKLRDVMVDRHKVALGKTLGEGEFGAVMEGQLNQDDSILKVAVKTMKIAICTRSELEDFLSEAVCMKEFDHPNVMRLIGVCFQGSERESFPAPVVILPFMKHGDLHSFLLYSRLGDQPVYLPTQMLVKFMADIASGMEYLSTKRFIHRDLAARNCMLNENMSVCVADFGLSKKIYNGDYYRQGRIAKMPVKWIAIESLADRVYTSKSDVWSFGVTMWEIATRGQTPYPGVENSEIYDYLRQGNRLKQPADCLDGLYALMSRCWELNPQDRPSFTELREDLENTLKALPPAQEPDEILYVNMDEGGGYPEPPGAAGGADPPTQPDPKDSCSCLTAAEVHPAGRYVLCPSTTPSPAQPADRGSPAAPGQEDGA
Assay type: cell-based
Method in brief: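 Phospho-Akt was detected in formaldehyde-fixed cells by in-cell immunostaining with HRP chemiluminescence. Before fixation, HeLa cells kept 24 h in low-serum medium containing 500 ng/mL Axl/Fc received compound for 1 h at 37 °C, followed by 5-min Axl activation through antibody clustering.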

In the case of `Nc1nc(Nc2ccc(N3CCC(N4C(=O)Cc5ccccc54)CC3)c(F)c2)nn1-c1cc2c(nn1)-c1ccccc1CCC2` [Compound 7, 1-(6,7-dihydro-5H-benzo[6,7]cyclohepta[1,2-c]pyridazin-3-yl)-N^3-(3-fluoro-4-(4-(indolin-2-on-1-yl)piperidin-1-yl)phenyl)-1H-1,2,4-triazole-3,5-diamine], the IC50 is reported as greater than 20000 nM.

Same assay, conditions: Hela cells, phospho-Akt chemiluminescence normalized to relative cell number; compounds of formula (Ia), Table 1; read-out: IC50

Compared with `Nc1nc(Nc2ccc(N3CCN(C4CC5CCC4C5)CC3)nc2)nn1-c1cc2c(nn1)-c1ccccc1CCC2` (stereo not shown) [Compound 8, 1-(6,7-dihydro-5H-benzo[6,7]cyclohepta[1,2-c]pyridazin-3-yl)-N^3-(6-(4-(bicyclo[2.2.1]heptan-2-yl)piperazin-1-yl)pyridin-3-yl)-1H-1,2,4-triazole-3,5-diamine], `Nc1nc(Nc2ccc3c(c2)CCC(NC2CC4CCC2C4)CC3)nn1-c1cc2c(nn1)-c1ccccc1CCC2` (stereo not shown) [Compound 23, 1-(6,7-dihydro-5H-benzo[6,7]cyclohepta[1,2-c]pyridazin-3-yl)-N^3-(7-((bicyclo[2.2.1]heptan-2-yl)amino)-6,7,8,9-tetrahydro-5H-benzo[7]annulene-2-yl)-1H-1,2,4-triazole-3,5-diamine] is lower in IC50: 1000 to 10000 nM for the first, less than 1000 nM for the second. The second is the more potent here.

First: CCCN(CCC)C1CCN(c2ccc(Nc3nc(N)n(-c4cc5c(nn4)-c4ccccc4CCC5)n3)cc2F)CC1 [Compound 83, 1-(6,7-dihydro-5H-benzo[6,7]cyclohepta[1,2-c]pyridazin-3-yl)-N^3-(3-fluoro-4-(4-(dipropylamino)piperidin-1-yl)phenyl)-1H-1,2,4-triazole-3,5-diamine]
Second: Nc1nc(Nc2ccc(N3CCC(N)CC3)c(F)c2)nn1-c1cc2c(nn1)-c1ccccc1CCC2 [Compound 87, 1-(6,7-dihydro-5H-benzo[6,7]cyclohepta[1,2-c]pyridazin-3-yl)-N^3-(3-fluoro-4-(4-aminopiperidin-1-yl)phenyl)-1H-1,2,4-triazole-3,5-diamine]
The IC50 of the first is higher: 1000 to 10000 nM for the first, less than 1000 nM for the second. The second is the more potent here.

First: CN1CCN(c2ccc(Nc3nc(N)n(-c4cc5c(nn4)-c4ccccc4N(C)CC5)n3)cc2)CC1 [Compound 41, 1-(7-methyl-6,7-dihydro-5H-benzo[2,3]azepino[4,5-c]pyridazin-3-yl)-N^3-(4-(N-methylpiperazin-1-yl)phenyl)-1H-1,2,4-triazole-3,5-diamine]
Second: Nc1nc(Nc2ccc(N3CCC(N4CCCC4)CC3)cc2)nn1-c1cc2c(nn1)-c1ccccc1CCC2 [Compound 101, 1-(6,7-dihydro-5H-benzo[6,7]cyclohepta[1,2-c]pyridazin-3-yl)-N^3-(4-(4-pyrrolidin-1-ylpiperidinyl)phenyl)-1H-1,2,4-triazole-3,5-diamine]
The IC50 of the first is higher: 1000 to 10000 nM for the first, less than 1000 nM for the second. The second is the more potent here.

Compared with `Nc1nc(Nc2ccc(N3CCC(N4CC5CN(C6CCCCC6)CC5C4)CC3)c(F)c2)nn1-c1cc2c(nn1)-c1ccccc1CCC2` (stereo not shown) [Compound 88, 1-(6,7-dihydro-5H-benzo[6,7]cyclohepta[1,2-c]pyridazin-3-yl)-N^3-(3-fluoro-4-(4-(5-cyclohexyl-octahydropyrrolo[3,4-c]pyrrolyl)piperidin-1-yl)phenyl)-1H-1,2,4-triazole-3,5-diamine], `Nc1nc(Nc2ccc(N3CCN(C4CCCCC4)CC3)c(F)c2)nn1-c1cc2c(nn1)-c1cc(F)ccc1CCC2` [Compound 55, 1-(6,7-dihydro-5H-10-fluorobenzo[6,7]cyclo-hepta[1,2-c]pyridazin-3-yl)-N^3-(3-fluoro-4-(4-(cyclohexyl)piperazin-1-yl)phenyl)-1H-1,2,4-triazole-3,5-diamine] is higher in IC50: less than 1000 nM for the first, 10000 to 20000 nM for the second.

First: Nc1nc(Nc2ccc(-c3ccc4c(c3)OCO4)nc2)nn1-c1cc2c(nn1)-c1ccccc1CCC2 [Compound 97, 1-(6,7-dihydro-5H-benzo[6,7]cyclohepta[1,2-c]pyridazin-3-yl)-N^3-(6-(benzo[d][1,3]dioxole-6-yl)pyridine-3-yl)-1H-1,2,4-triazole-3,5-diamine]
Second: Nc1nc(Nc2cnc3c(c2)CCN(C2CCCC2)CC3)nn1-c1cc2c(nn1)-c1ccccc1CCC2 [Compound 26, 1-(6,7-dihydro-5H-benzo[6,7]cyclohepta[1,2-c]pyridazin-3-yl)-N^3-(7-cyclopentyl-6,7,8,9-tetrahydro-5H-pyrido[3,2-d]azepin-3-yl)-1H-1,2,4-triazole-3,5-diamine]
The IC50 of the first is higher: greater than 20000 nM for the first, 1000 to 10000 nM for the second.

`CN1CCN(C(=O)C2CCc3ncc(Nc4nc(N)n(-c5cc6c(nn5)-c5ccccc5CCC6)n4)cc3C2)CC1` (stereo not shown) [Compound 31, 1-(6,7-dihydro-5H-benzo[6,7]cyclohepta[1,2-c]pyridazin-3-yl)-N^3-(6-(4-methylpiperazin-1-yl)carbonyl-5,6,7,8-tetrahydroquinolin-3-yl)-1H-1,2,4-triazole-3,5-diamine] gave an IC50 of less than 1000 nM.

Same assay, conditions: Hela cells, phospho-Akt chemiluminescence normalized to relative cell number; compounds of formula (Ib), Table 2; read-out: IC50

Compound `Nc1nc(Nc2ccc(N3CCC(N4CCCC4)CC3)cc2)n(-c2cc3c(nn2)-c2ccccc2CCC3)n1` [Compound 164, 1-(6,7-dihydro-5H-benzo[6,7]cyclohepta[1,2-c]pyridazin-3-yl)-N^5-(4-(4-pyrrolidin-1-ylpiperidinyl)phenyl)-1H-1,2,4-triazole-3,5-diamine] has an IC50 of 1000 to 10000 nM.

Same assay, conditions: inhibition of Axl activity; Table 1, compounds of formula (Ia); read-out: IC50

First: Nc1nc(Nc2ccc(N3CCC(N4CCCC4)CC3)c(F)c2)nn1-c1cc2c(nn1)-c1ccccc1OC21CCCC1 [Compound 176, 1-(spiro[chromeno[4,3-c]pyridazine-5,1′-cyclopentane]-3-yl)-N^3-(3-fluoro-4-(4-(pyrrolidin-1-yl)piperidin-1-yl)phenyl)-1H-1,2,4-triazole-3,5-diamine]
Second: Nc1nc(Nc2ccc3c(c2)CCC(N2CCCCC2)CC3)nn1-c1cc2c(nn1)-c1ccccc1CCC2 (stereo not shown) [Compound 150, 1-(6,7-dihydro-5H-benzo[6,7]cyclohepta[1,2-c]pyridazin-3-yl)-N^3-((7-piperidin-1-yl)-6,7,8,9-tetrahydro-5H-benzo[7]annulene-2-yl)-1H-1,2,4-triazole-3,5-diamine]
The IC50 of the first is higher: 1000 to 10000 nM for the first, less than 1000 nM for the second.

`Nc1nc(Nc2ccc(C=CCN3CCC(N4CCCC4)CC3)cc2)nn1-c1cc2c(nn1)-c1ccccc1CCC2` [Compound 203, 1-(6,7-dihydro-5H-benzo[6,7]cyclohepta[1,2-c]pyridazin-3-yl)-N^3-(4-(4-pyrrolidin-1-ylpiperidin-1-ylprop-1-enyl)phenyl)-1H-1,2,4-triazole-3,5-diamine] and `CN1CCN(CC=Cc2ccc(Nc3nc(N)n(-c4cc5c(nn4)-c4ccccc4CCC5)n3)cc2)CC1` [Compound 204, 1-(6,7-dihydro-5H-benzo[6,7]cyclohepta[1,2-c]pyridazin-3-yl)-N^3-(4-(4-methylpiperazin-1-ylprop-1-enyl)phenyl)-1H-1,2,4-triazole-3,5-diamine] cannot be ordered by IC50: less than 1000 nM for the first, less than 1000 nM for the second.

`Nc1nc(Nc2ccc3c(c2)CCC(N2CC[C@@H](F)C2)CC3)nn1-c1cc2c(nn1)-c1ccccc1CCC2` (stereo partly drawn) [Compound 222, 1-(6,7-dihydro-5H-benzo[6,7]cyclohepta[1,2-c]pyridazin-3-yl)-N^3-(7-(3-(R)-fluoropyrrolidin-1-yl)-6,7,8,9-tetrahydro-5H-benzo[7]annulene-2-yl)-1H-1,2,4-triazole-3,5-diamine] and `Nc1nc(Nc2ccc3c(c2)CN(CC2CC2)CC3)nn1-c1cc2c(nn1)-c1ccccc1CCC2` [Compound 216, 1-(6,7-dihydro-5H-benzo[6,7]cyclohepta[1,2-c]pyridazin-3-yl)-N^3-(2-(cyclopropylmethyl)-1,2,3,4-tetrahydroisoquinolin-7-yl)-1H-1,2,4-triazole-3,5-diamine] cannot be ordered by IC50: less than 1000 nM for the first, less than 1000 nM for the second.

Compared with `CN1CCCC(Oc2ccc(Nc3nc(N)n(-c4cc5c(nn4)-c4ccccc4CCC5)n3)cc2)C1` (stereo not shown) [Compound 210, 1-(6,7-dihydro-5H-benzo[6,7]cyclohepta[1,2-c]pyridazin-3-yl)-N^3-(4-(1-methylpiperidin-3-yl-oxy)phenyl)-1H-1,2,4-triazole-3,5-diamine], `Nc1nc(Nc2cnc3c(c2)CN(C2CCCC2)CCC3)nn1-c1cc2c(nn1)-c1ccccc1CCC2` [Compound 139, 1-(6,7-dihydro-5H-benzo[6,7]cyclohepta[1,2-c]pyridazin-3-yl)-N^3-(6-cyclopentyl-6,7,8,9-tetrahydro-5H-pyrido[3,2-c]azepin-3-yl)-1H-1,2,4-triazole-3,5-diamine] is higher in IC50: less than 1000 nM for the first, greater than 20000 nM for the second.

Work on `Cc1csc2c(-n3nc(Nc4cnc5c(c4)CC4(CCC5)OCCO4)nc3N)nc(Cl)nc12` [Compound 240, 1-(2-chloro-7-methylthieno[3,2-d]pyrimidin-4-yl)-N^3-(5,7,8,9-tetrahydrospiro[cyclohepta[b]pyridine-6,2′-[1,3]dioxolane]-3-yl)-1H-1,2,4-triazole-3,5-diamine] yielded an IC50 of less than 1000 nM.
